Results published in paper PMC9673926, “Nucleotide binding as an allosteric regulatory mechanism for Akkermansia muciniphila β-N-acetylhexosaminidase Am2136” (Gut Microbes, 2022).
Positions count from the first letter of the chain named.

Tests used:
Test in all cases: Nucleotide binding affinity by intrinsic fluorescence, mutant
Design in all cases: The coding region (residue Q20-L756) of Am2136 without signal peptide was based on UniProt; 6XHis (N); made in house; host or cells: E. coli BL21 (DE3)
Am2136 R256A = molecular target: T1, Am2136 R256A (Akkermansia muciniphila, UniProt B2UPR7, R256A)
T1 sequence (B2UPR7 20-756 R256A): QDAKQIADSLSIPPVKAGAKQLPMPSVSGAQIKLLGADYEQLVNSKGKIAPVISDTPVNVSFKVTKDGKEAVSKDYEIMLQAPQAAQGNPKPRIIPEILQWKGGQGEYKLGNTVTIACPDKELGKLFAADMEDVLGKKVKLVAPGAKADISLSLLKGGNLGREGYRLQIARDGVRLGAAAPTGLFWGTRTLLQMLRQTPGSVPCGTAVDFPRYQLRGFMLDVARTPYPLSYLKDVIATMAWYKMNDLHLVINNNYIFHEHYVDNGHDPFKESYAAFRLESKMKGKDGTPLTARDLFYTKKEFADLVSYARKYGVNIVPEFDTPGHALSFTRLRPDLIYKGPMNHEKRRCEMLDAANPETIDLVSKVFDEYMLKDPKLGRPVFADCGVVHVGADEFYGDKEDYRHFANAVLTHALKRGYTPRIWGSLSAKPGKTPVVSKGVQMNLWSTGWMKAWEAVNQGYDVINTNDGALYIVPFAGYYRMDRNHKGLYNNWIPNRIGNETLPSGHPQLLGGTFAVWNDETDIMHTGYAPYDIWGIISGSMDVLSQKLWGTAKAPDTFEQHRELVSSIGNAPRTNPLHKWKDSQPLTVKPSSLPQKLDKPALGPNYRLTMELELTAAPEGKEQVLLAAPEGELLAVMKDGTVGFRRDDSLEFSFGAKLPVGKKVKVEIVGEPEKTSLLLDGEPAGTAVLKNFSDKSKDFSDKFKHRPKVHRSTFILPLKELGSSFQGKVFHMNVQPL
Experimental: (§1) The nucleotide binding ability was determined on Fluorescence Spectrometer Duetta (HORIBA) by measuring the change of peak intensity. The fluorescence was excited at 286 nm and emitted at 336 nm. And the measurement was processed under 400 V voltage with 2.5 nm excitation slit and 5 nm emission slit. The 120 μL reaction mixture contains 0–550 μM nucleotide, 5 μM proteins, 25 mM Tris pH 8.0 and 150 mM NaCl. The sample was incubated at 4°C for 5 min before testing.

Am2136 R592A = molecular target: T2, Am2136 R592A (Akkermansia muciniphila, UniProt B2UPR7, R592A)
T2 sequence (B2UPR7 20-756 R592A): T1 sequence (B2UPR7 20-756 R256A) with A237R, R573A
Experimental: as §1

Am2136 Y550A = molecular target: T3, Am2136 Y550A (Akkermansia muciniphila, UniProt B2UPR7, Y550A)
T3 sequence (B2UPR7 20-756 Y550A): T1 sequence (B2UPR7 20-756 R256A) with A237R, Y531A
Experimental: as §1

## Nc1nc2c(ncn2[C@@H]2O[C@H](COP(=O)(O)OP(=O)(O)O)[C@@H](O)[C@H]2O)c(=O)[nH]1 [GDP]
Am2136 R256A
  Kd: 158 ± 10.9 µM
Am2136 R592A
  Kd: 120 ± 5.82 µM
Am2136 Y550A
  Kd: 193 ± 7.36 µM
